Measurements: PMC3618987, “From BACE1 Inhibitor to Multifunctionality of Tryptoline and Tryptamine Triazole Derivatives for Alzheimer’s Disease” (Molecules, 2012)
“Also recorded” adds a separate entry of the source.

Key:
[1] = Free radical scavenging assay (DPPH)
Procedure: The test samples were prepared in 50% DMSO at 500 µM. Seventy microliters of DPPH solution (500 µM in methanol) was added to 96 well plate. The assay mixture was adjusted to 80 µL volume by methanol. After adjusting the volume, 20 µL of test compounds was added to each well. The reaction plate was incubated at room temperature in dark for 30 min. The absorbance was measured at 517 nm by using infinite 200 pro^TM, Tecan. Ascorbic acid was used as a positive control. Percent inhibition was calculated and compounds showing activity were evaluated for the IC50 values.

[2] = Fe (II) chelation capacity assay (ferrozine)
Procedure: An aqueous solution of 0.2 mM ferrous sulphate was prepared. Fifty microliters of this solution was added to 96 well plate, then 40 µL of 500 µM of test compounds in 50% DMSO were added to each well followed by DI water to adjust the volume to 150 µL. The mixtures were incubated at room temperature for 10 min. After incubation, 50 µL of 1 mM ferrozine (Sigma) was added to the reaction mixture. The absorbance was measured at 562 nm by using infinite 200 pro^TM, Tecan. EDTA was used as a positive control. Chelation capacity of each compounds were calculated. Compounds having chelating capacity over than 50% were evaluated for stoichiometric ratio of compound: metal.

β-Secretase (BACE1) = target: T1, β-Secretase (BACE1) (Homo sapiens, UniProt P56817); test: β-Secretase inhibition assay (fluorogenic substrate IV); format: biochemical; conditions: for inhibition at 25 µM: read-out: BACE1 % Inhibition (at 25 µM) (±SEM)
T1 construct: purchased Sino Biological
Procedure: β-Secretase enzyme was reconstituted with 50 mM Tris (pH 7.5), 10% glycerol to yield concentration of 0.5 unit/µL. The enzyme stock solution was diluted with 100 mM sodium acetate buffer (pH 4.5) to 0.01 unit/µL. Thirty microliters of enzyme solution were added to each well that contained 20 µL of 5% DMSO of test compound. Then, fifty microliters of 50 µM β-secretase substrate IV from Calbiochem were added to the reaction plate. […] The assays were run in triplicate.

amyloid-β (1-42) peptide [3] = target: T2, amyloid-β (1-42) peptide (Homo sapiens, UniProt P05067); test: Amyloid β aggregation assay (ThT fluorescence); format: biochemical; conditions: Aβ(1-42), 48 h; for inhibition at 100 µM: read-out: Anti-Aβ aggregation % Inhibition (at 100 µM) (±SEM)
T2 construct: Stock solution of amyloid-β (1-42) peptide (Anaspec; 1384 µM in 1% NH4OH); purchased Anaspec
Procedure: Nine microliters amyloid-β solution was added to a greiner transparent 96 well plate. One microliter of each test compounds (1,000 µM in DMSO) were added to each well and mixed gently by tapping. The final concentrations of each compound were 100 µM in 10% DMSO. The reaction plate was incubated in dark at 37 °C for 48 h. After incubation, 200 µL of 5 µM ThT (Sigma) in 50 mM Tris buffer (pH 7.4) was added to each well. The fluorescence was measured at Ex = 446 nm and Em = 490 nm by using SpectraMax Gemini EM^TM [30]. The assays were run in triplicate.

amyloid-β (1-42) peptide [4] = target: T2, amyloid-β (1-42) peptide; test: Amyloid β aggregation assay (ThT fluorescence); format: biochemical; conditions: Aβ(1-42), read-out: Anti-Aβ aggregation IC50
SH-SY5Y cells = test: Protection against Aβ1-42 induced neuronal cell death, MTT viability assay; format: cell-based; conditions: compound 1 μM
Procedure: The SH-SY5Y cells were cultured in a medium containing minimum essential medium (MEM): F-12 (1:1), 10% fetal bovine serum, MEM non-essential amino acids (0.5×), 0.5 mM sodium pyruvate and 100 units/ml of penicillin and 100 μg/mL of streptomycin. The cells were maintained under a humidified incubator with 5% CO2 in air at 37 °C.
SH-SY5Y cells were seeded in 96-well plates (2 × 10^4 cells per well) for 24 h. […] The aggregated β-amyloid was prepared by incubating in a medium without serum, penicillin and streptomycin at 37 °C for 72 h. The cells treated with aggregated β-amyloid were incubated for 24 h, 15 µL of MTT reagent (5 mg/mL MTT in serum free medium containing […]) was added to each well and incubated at 37 °C for 3 h. The medium was removed from each well. One hundred microlitres of 0.04 N HCl in isopropanol was added to each well to dissolve blue formazan crystals, which is the product of MTT catalyzed by mitochondrial dehydrogenase. The absorbance was measured at 570/630 nm using a Synergy^TM HT multi-detection microplate reader (Bio-Tek Instruments, Winooski, VT, USA).

T1 sequence (P56817 46-501): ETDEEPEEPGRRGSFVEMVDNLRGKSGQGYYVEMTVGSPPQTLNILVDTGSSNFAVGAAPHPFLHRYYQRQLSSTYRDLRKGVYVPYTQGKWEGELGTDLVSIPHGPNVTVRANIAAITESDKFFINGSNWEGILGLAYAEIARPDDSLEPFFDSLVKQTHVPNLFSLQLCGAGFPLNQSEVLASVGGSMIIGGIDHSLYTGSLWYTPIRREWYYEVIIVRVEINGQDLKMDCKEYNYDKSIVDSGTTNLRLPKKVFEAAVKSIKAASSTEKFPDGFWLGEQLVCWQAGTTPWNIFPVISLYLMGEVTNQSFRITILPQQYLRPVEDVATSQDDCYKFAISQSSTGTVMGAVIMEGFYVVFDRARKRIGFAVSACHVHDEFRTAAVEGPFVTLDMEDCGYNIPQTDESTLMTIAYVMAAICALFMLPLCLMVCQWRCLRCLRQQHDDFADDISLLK
T2 sequence (P05067 672-713 limits assumed): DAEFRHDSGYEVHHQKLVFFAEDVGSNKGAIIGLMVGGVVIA

| Compound | inhibition at 25 µM (β-Secretase (BACE1)) [%] | inhibition at 100 µM (amyloid-β (1-42) peptide [3]) [%] | DPPH % Inhibition (at 100 µM) (±SEM) [1] | Fe chelation % Capacity (at 100 µM) (±SEM) [2] | further results |
| --- | --- | --- | --- | --- | --- |
| O=C1O[C@H]([C@@H](O)CO)C(O)=C1O [Ascorbic acid, reference compound] |  |  | 53.64 (±0.11) % |  | IC50 [1]: 94.9 µM |
| CC(C)(C)c1ccc(-c2cn(C[C@@H]3Cc4c([nH]c5ccccc45)CN3)nn2)cc1 [Compound 6a, (S)-3-((4-(4-tert-Butylphenyl)-1H-1,2,3-triazol-1-yl)methyl)-2,3,4,9-tetrahydro-1H-pyrido[3,4-b] indole] | 68 |  |  | 9.67 (±0.32) % | IC50 (β-Secretase (BACE1)): 19.8 µM |
| O=C(/C=C/c1ccc(O)c(O)c1)NCc1cn(C[C@@H]2Cc3c([nH]c4ccccc34)CN2)nn1 [Compound 6h, (S)-3-((4-(N-(((E)-(3,4-Dihydroxyphenyl)propenoyl)azyl)methyl)-1H-1,2,3-triazol-1-yl)methyl)-2,3,4,9-tetrahydro-1H-pyrido[3,4-b]indole] | 21.7 |  | 92.29 (±0.02) % | 42.74 (±0.30) % | IC50 [1]: 42.9 µM; Protective effect against Aβ1-42 induced neuronal cell death (MTT viability) (SH-SY5Y cells): significantly greater than those of the potent single target compound, BACE1 inhibitor IV; also recorded: decrease cell death to a greater extent than BACE1 inhibitor IV; also recorded: better than that of single targeted ligands; IC50 (amyloid-β (1-42) peptide [4]): 29.9 µM |
| CC(C)(C)c1ccc(-c2cn(C[C@@H](N)Cc3c[nH]c4ccccc34)nn2)cc1 [Compound 12a, (S)-1-(4-(4-tert-Butylphenyl)-1H-1,2,3-triazol-1-yl)-3-(1H-indol-3-yl)propan-2-amine] | 18.9 | 17.8 |  | 42.65 (±1.07) % |  |
| N[C@@H](Cc1c[nH]c2ccccc12)Cn1cc(-c2ccc(Cl)c(Cl)c2)nn1 [Compound 12c, (S)-1-(4-(3,4-Dichlorophenyl)-1H-1,2,3-triazol-1-yl)-3-(1H-indol-3-yl)propan-2-amine] | 61.5 | > 50 |  |  | Protective effect against Aβ1-42 induced neuronal cell death (MTT viability) (SH-SY5Y cells): significantly greater than those of the potent single target compound, BACE1 inhibitor IV; also recorded: decrease cell death to a greater extent than BACE1 inhibitor IV; also recorded: better than that of single targeted ligands; IC50 (amyloid-β (1-42) peptide [4]): 83.2 µM; IC50 (β-Secretase (BACE1)): 20.7 µM |
| N[C@@H](Cc1c[nH]c2ccccc12)Cn1cc(CNC(=O)CCc2ccc(O)cc2)nn1 [Compound 12e, (S)-N-((1-(2-Amino-3-(1H-indol-3-yl)propyl)-1H-1,2,3-triazol-4-yl)methyl)-3-(4-hydroxyphenyl)propanamide] | 7.53 | 36 |  | 41.42 (±1.13) % |  |
| N[C@@H](Cc1c[nH]c2ccccc12)Cn1cc(CNC(=O)/C=C/c2ccc(O)c(O)c2)nn1 [Compound 12h, (S,E)-N-((1-(2-Amino-3-(1H-indol-3-yl)propyl)-1H-1,2,3-triazol-4-yl)methyl)-3-(3,4-dihydroxy-phenyl)acrylamide] | 40 |  | 50.58 (±0.17) % |  | IC50 [1]: 92.7 µM; Protective effect against Aβ1-42 induced neuronal cell death (MTT viability) (SH-SY5Y cells): significantly greater than those of the potent single target compound, BACE1 inhibitor IV; also recorded: decrease cell death to a greater extent than BACE1 inhibitor IV; also recorded: better than that of single targeted ligands; IC50 (amyloid-β (1-42) peptide [4]): 56.4 µM |
| O=C(O)CN(CCN(CC(=O)O)CC(=O)O)CC(=O)O [EDTA, reference compound] |  |  |  | 98.00 (±0.34) % |  |
| C[C@@H](NC(=O)c1cc(C(=O)N[C@@H](Cc2ccccc2)[C@H](O)CNC2CC2)cc(N(C)S(C)(=O)=O)c1)c1ccccc1 [Inh IV, reference compound] |  |  |  |  | Protective effect against Aβ1-42 induced neuronal cell death (MTT viability) (SH-SY5Y cells): improved cell viability |
| (S)-1-(1H-Indol-3-yl)-3-(4-(6-methoxynaphthalen-2-yl)-1H-1,2,3-triazol-1-yl)propan-2-amine [Compound 12b] |  |  |  | 10.54 (±0.22) % | Anti-Aβ aggregation % Inhibition (at 100 µM) (±SEM) (amyloid-β (1-42) peptide [3]): 34.02 (±10.13) %; BACE1 % Inhibition (at 25 µM) (±SEM) (β-Secretase (BACE1); 25 µM): 30.42 (±3.54) % |

Continued, in another order:

| inhibition at 25 µM (β-Secretase (BACE1)) [%] | inhibition at 100 µM (amyloid-β (1-42) peptide [3]) [%] | Compound | DPPH % Inhibition (at 100 µM) (±SEM) [1] | Fe chelation % Capacity (at 100 µM) (±SEM) [2] | further results |
| --- | --- | --- | --- | --- | --- |
| 73.6 | 7.19 | COc1ccc2cc(-c3cn(C[C@@H]4Cc5c([nH]c6ccccc56)CN4)nn3)ccc2c1 [Compound 6b, (S)-3-((4-(6-Methoxynaphthalen-2-yl)-1H-1,2,3-triazol-1-yl)me-thyl)-2,3,4,9-tetrahydro-1H-pyrido-[3,4-b]indole] |  | 12.35 (±0.68) % | IC50 (β-Secretase (BACE1)): 18.9 µM |
| 78.9 | 10.1 | Clc1ccc(-c2cn(C[C@@H]3Cc4c([nH]c5ccccc45)CN3)nn2)cc1Cl [Compound 6c, (S)-3-((4-(3,4-Dichlorophenyl)-1H-1,2,3-triazol-1-yl)methyl)-2,3,4,9-tetrahydro-1H-pyrido[3,4-b]-indole] |  | 15.88 (±0.21) % | IC50 (β-Secretase (BACE1)): 18 µM |
| 14.1 |  | O=C(NCc1cn(C[C@@H]2Cc3c([nH]c4ccccc34)CN2)nn1)c1ccccc1C(=O)c1ccc(O)cc1 [Compound 6d] | 2.81 (±0.37) % | 32.86 (±0.19) % |  |
| 12.6 |  | O=C(CCc1ccc(O)cc1)NCc1cn(C[C@@H]2Cc3c([nH]c4ccccc34)CN2)nn1 [Compound 6e, (S)-3-((4-(N-(((4-Hydroxyphenyl)propanoyl)azyl)methyl)-1H-1,2,3-triazol-1-yl)methyl)-2,3,4,9-tetra-hydro-1H-pyrido[3,4-b]ind ole] | 5.45 (±0.33) % | 20.63 (±0.35) % |  |
| 21.3 |  | O=C(NCc1cn(C[C@@H]2Cc3c([nH]c4ccccc34)CN2)nn1)c1cc(O)cc(O)c1 [Compound 6f, (S)-3-((4-(((N-(3,5-Dihydroxy)benzoyl)azyl)methyl)-1H-1,2,3-triazol-1-yl)methyl)-2,3,4,9-tetrahydro-1H-pyrido[3,4-b]indole] |  | 5.80 (±0.04) % | melting point: 180 to 182 °C |
| 21.1 | > 50 | COc1cc(/C=C/C(=O)NCc2cn(C[C@@H]3Cc4c([nH]c5ccccc45)CN3)nn2)ccc1O [Compound 6g, (S)-3-((4-(N-(((E)-(3-Methoxy-4-hydroxyphenyl)propenoyl)azyl)methyl)-1H-1,2,3-triazol-1-yl)-methyl)-2,3,4,9-tetrahydro-1H-pyrido[3,4-b]indole] | 47.03 (±0.12) % | 8.88 (±0.25) % | IC50 [1]: 106 µM; IC50 (amyloid-β (1-42) peptide [4]): 82.9 µM |
| 33 |  | N[C@@H](Cc1c[nH]c2ccccc12)Cn1cc(CNC(=O)c2ccccc2C(=O)c2ccc(O)cc2)nn1 [Compound 12d, (S)-N-((1-(2-Amino-3-(1H-indol-3-yl)propyl)-1H-1,2,3-triazol-4-yl)methyl)-2-(4-hydroxybenzoyl)-benzamide] | 1.56 (±0.51) % | 13.87 (±0.59) % | IC50 (amyloid-β (1-42) peptide [4]): 47.5 µM |
|  | 82.9 | COc1cc(/C=C/C(=O)CC(=O)/C=C/c2ccc(O)c(OC)c2)ccc1O [Curcumin, reference compound] |  |  |  |
